This note sets out measurements from the METLIN SMRT retention time set (Domingo-Almenara et al. 2019).

A short description of the series: gradient 5% acetonitrile 3 min, to 50% in 2 min, to 85% in 15 min, held 3 min, 100 µL/min. To be noted: column: Zorbax Extend-C18 2.1 x 50 mm; eluents: water / acetonitrile, 0.1% formic acid. The procedure, abridged: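 Data were gathered over 3 months by HPLC coupled to a quadrupole time-of-flight mass spectrometer, operated in positive and negative ionization mode. Mixtures of ~100 pure standards ran on a Zorbax Extend-C18 column (2.1 × 50 mm, 1.8 μm) at 100 μL/min, with water and acetonitrile each containing 0.1% formic acid and dead and dwell volumes of 40 μL and 900 μL. Retention time was read from adduct peaks picked by computer and checked manually.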
`Cc1ccccc1Cn1cc(S(=O)(=O)N2CCOCC2)ccc1=O` returned an RP-LC retention time of 784 s. In turn, `CCn1ccc2oc(C)c(C(=O)NCc3ccc(C(C)C)cc3)c2c1=O` gave an RP-LC retention time of 1130 s. In the case of `CC(C)CNC(=O)C1CCN(c2cncnc2N2CCOCC2)CC1`, the RP-LC retention time stood at 582 s.

Take `Fc1cccc(-c2noc(Cc3nnc(-c4ccc(Cl)cc4)o3)n2)c1`: the RP-LC retention time is 995 s. `CCCN1C(=O)C2CCC(=O)N2c2ccc(C(=O)NC(C)C)cc21` (centres undefined) yielded an RP-LC retention time of 669 s. On to `Cn1nc(C(=O)N2CCCC(c3nnc(-c4ccccc4F)s3)C2)ccc1=O` (centres undefined), for which the RP-LC retention time is 690 s. Consider `CCn1nccc1C(=O)NC1CCCCC1`, for which the RP-LC retention time was 718 s. On to `CCN1CCN(C(=O)CN2C(=O)c3ccccc3Sc3ncccc32)CC1`, for which the RP-LC retention time was found to be 581 s. `Cc1cc(NC(=O)Cn2cc3c(n2)CCCCC3)ccc1Br` returned an RP-LC retention time of 1030 s. In the case of `CSc1ccc(-c2nc3cnccn3c2Nc2ccc(C(C)C)cc2)cc1`, the RP-LC retention time was 1160 s. Compound `Cc1ccc(CNCCSc2nnnn2C)s1` displayed an RP-LC retention time of 580 s. In the case of `CC1CCCN(S(=O)(=O)c2ccc(-n3cnc(C(=O)N4CCN(C)CC4)c3)nc2)C1` (centres undefined), the RP-LC retention time was 648 s.

Turning to `O=C(O)c1ccc(NC(=O)N2C[C@@H]3C[C@@H](C2)c2cccc(=O)n2C3)cc1`, the RP-LC retention time was 592 s. With `CCn1c(=O)c(N2CCN(C(=O)Nc3ccc(F)cc3F)CC2)nc2ccccc21` the figure was 895 s; with `Cc1cc(C)cc(-n2ccnc(NC(=O)Nc3cccc(F)c3)c2=O)c1`, 1020 s. For `Cc1ccc2c(c1)cc(S(=O)(=O)c1ccccc1)c(=O)n2CC(=O)NC(C)C`, the RP-LC retention time turned out to be 808 s.

`Cc1nn(CC(=O)N2CCC(N3CCCCC3)CC2)c(=O)c2nn(-c3ccccc3)c(C)c12` registered an RP-LC retention time of 605 s. Turning to `COc1ccc(S(=O)(=O)N2CCN(c3cc(C)nc(N4CCCCC4)n3)CC2)cc1Cl`, the RP-LC retention time was determined as 768 s.

Turning to `CC(=O)N1c2ccc(S(=O)(=O)N3CCC(C(=O)Nc4cccnc4)CC3)cc2CC1C` (centres undefined), the RP-LC retention time is 617 s.

Turning to `CCOc1cccc(CNc2cc(-n3nc(C)cc3C)ncn2)c1`, the RP-LC retention time is 987 s.

Take `CCc1noc(-c2ccc(=O)n(CC(=O)Nc3ccc(F)cc3)c2)n1`: the RP-LC retention time stood at 1020 s. Regarding `Cc1ccc(NC(=O)Nc2nccn(-c3cccc(Cl)c3)c2=O)cc1C`, the RP-LC retention time amounted to 1090 s. On to `CCCNC(=O)C1CCN(c2ccc(SCC(=O)NCc3cccc(C(F)(F)F)c3)nn2)CC1`, for which the RP-LC retention time was determined as 672 s. The result for `CCOc1ccccc1NC(=O)C1CCCN1S(=O)(=O)c1cc2c(cc1Cl)NC(=O)CO2` (centres undefined) reads 880 s; that for `O=C(NCc1ccc(F)cc1)N1CCN(CCn2c(C(F)(F)F)nc3cccnc32)CC1`, 639 s. Compound `COc1ccc(-c2noc(C3CCCN3C(=O)Nc3ccccc3C(F)(F)F)n2)cc1` (centres undefined) returned an RP-LC retention time of 1010 s. `CC(C)c1ccc(S(=O)(=O)N2CCN(c3cnn4cnnc4c3)CC2)cc1` showed an RP-LC retention time of 795 s. Compound `COC[C@@H]1CN(S(=O)(=O)c2ccc(C)cc2)C[C@H]1c1ccncc1` displayed an RP-LC retention time of 651 s. With `OC1CCCCC1N1CCC(c2ccccc2)CC1` (centres undefined) the figure was 679 s; with `Cc1ccc(CNc2nnc(-c3nnc(C)o3)c3ccccc23)cc1`, 830 s.

Compound `CCN(CC)c1nc(C(=O)NCCN2CCOCC2)nc2nc(C)cc(C)c12` gave an RP-LC retention time of 558 s.

In turn, `Cc1cc2c(cc1S(=O)(=O)N1CCCC1C(=O)Nc1ccc(Cl)cc1F)OC(C)C(=O)N2` (centres undefined) showed an RP-LC retention time of 884 s. Compound `O=C(CCc1c(-c2ccc(Cl)cc2)nc2ccccn12)Nc1cccc(C(F)(F)F)c1` gave an RP-LC retention time of 782 s. In turn, `CN(C)c1ccc(/C=C/C(=O)c2cc(Cl)ccc2O)cc1` registered an RP-LC retention time of 1120 s. Compound `CCNC(=O)N1CCC(c2noc(-c3cccnc3)n2)C1` (centres undefined) gave an RP-LC retention time of 605 s. In the case of `CCCCn1cnc2c(-c3ccccc3)cn(CC(=O)NC(C)C)c2c1=O`, the RP-LC retention time turned out to be 905 s.

`Cc1ccc(N2CC(c3noc(-c4ccc(F)cc4Cl)n3)CC2=O)cc1` (centres undefined) yielded an RP-LC retention time of 1060 s.

On to `Cc1noc(-c2cccnc2N2CCN(C(c3ccccc3)c3ccccc3)CC2)n1`, for which the RP-LC retention time was found to be 742 s. Regarding `O=C(NCCC1=CCCCC1)c1c[nH]c2ncccc12`, the RP-LC retention time stood at 968 s. `COc1ccc(NS(=O)(=O)c2ccc(/C=C\c3onc(C)c3NC(C)=O)cc2)c(OC)c1`: the RP-LC retention time came to 777 s.

Compound `O=C1CCN(C(=O)COc2ccc(Cl)cc2Cl)c2ccccc2N1` registered an RP-LC retention time of 792 s.

Compound `Cc1cc(C(=O)N2CCC(c3noc(-c4cnccn4)n3)C2)nn1C` (centres undefined) gave an RP-LC retention time of 641 s. The result for `CCn1c(C2CCN(S(=O)(=O)c3ccc(Cl)cc3)C2)nc2cccnc21` (centres undefined) reads 796 s. Take `CC(=O)Nc1ccc(NC(=O)C2CCCN(c3ccc(=O)n(-c4ccc(C)c(Cl)c4)n3)C2)cc1` (centres undefined): the RP-LC retention time was found to be 768 s. The result for `Cc1c(-c2nsc(Nc3ccccc3)n2)nnn1-c1ccccc1` reads 946 s; that for `CCNC(=O)N1CCCC1c1nc(C2CCOCC2)no1` (centres undefined), 612 s. The compound `O=C(C1CCCO1)N1CCC(OCc2nc(C3CC3)no2)CC1` (centres undefined) gave an RP-LC retention time of 635 s.

As to `Cc1ccc(CNC(=O)C2CCN(S(=O)(=O)c3ccc4[nH]c(=O)ccc4c3)CC2)cc1`, the RP-LC retention time is 738 s.

Compound `Cc1cc(C)c(S(=O)(=O)N2CCCC2c2nc(-c3ccc(F)cc3)no2)cc1C` (centres undefined) came in with an RP-LC retention time of 1270 s. In turn, `CCc1ccc(C2=C(C)C(N3CCCN(C(=O)c4ccncc4)CC3)=NS2(=O)=O)cc1` yielded an RP-LC retention time of 709 s. With `C=CCn1c(=O)c2ccccc2n(Cc2nc(-c3ccc(Cl)c(F)c3)no2)c1=O` the figure was 1120 s; with `COc1ccc(C(=O)NC2CCN(c3ccc(N4CCSCC4)nn3)CC2)c(OC)c1`, 644 s. `CC(=O)N1CCc2cc(N3CC(C(=O)Nc4cccc(C(F)(F)F)c4)CC3=O)ccc21` (centres undefined): the RP-LC retention time came to 791 s. The compound `O=C(Cn1cnc2ccccc2c1=O)N1CCC(c2nnc(-c3ccco3)s2)CC1` showed an RP-LC retention time of 643 s. On to `Cc1ccc(NC(=O)C2CC(=O)N(c3ccc4c(c3)CCN4C(=O)C3CC3)C2)c(F)c1` (centres undefined), for which the RP-LC retention time is 787 s.

As to `O=C(Cn1cc(-c2ccccc2)c2ncnc(N3CCOCC3)c21)N1CCCC1`, the RP-LC retention time came to 651 s. For the compound `CCCOc1nc2ccccc2nc1N1CCCC(C(=O)Nc2cccc(C(=O)OCC)c2)C1` (centres undefined), the RP-LC retention time worked out at 1340 s. `CNC(=O)[C@@H]1CN(C(=O)CCc2c(C)noc2C)C[C@H]1c1n[nH]c(C)n1`: the RP-LC retention time came out at 568 s. As to `CCCN1C(=O)Cc2ccccc2C1C(=O)NC1CCCCCC1` (centres undefined), the RP-LC retention time came out at 862 s.
